Experimental data as given in ChEMBL document CHEMBL5506012, “Targeting Myeloid Leukemia-1 in Cancer Therapy: Advances and Directions” (J Med Chem, 2024).

Assays:
[1] = target: T1, Induced myeloid leukemia cell differentiation protein Mcl-1 (Homo sapiens, UniProt Q07820); experiment: Inhibition of N-terminal GST-tagged human Mcl-1expressed in Escherichia coli by TR-FRET analysis
[2] = target: T1, Induced myeloid leukemia cell differentiation protein Mcl-1; experiment: Binding affinity to N-terminal His-tagged human recombinant Mcl-1 (172 to 327 residues) expressed in Escherichia coli BL21 (DE3) assessed as inhibition constant
MOLM-13 [3] = experiment: Growth inhibition of human MOLM-13 cells incubated for 48 hrs by cell-titer Glo reagent based assay; assay type: functional
MV4-11 [4] = experiment: cells; details: Homo sapiens, MV4-11, 48 h
Description: Growth inhibition of human MV4-11 cells incubated for 48 hrs by cell-titer Glo reagent based assay

HL-60 = experiment: Growth inhibition of human HL-60 cells incubated for 48 hrs by cell-titer Glo reagent based assay; assay type: functional
HCC1187 = experiment: Growth inhibition of human HCC1187
BC = experiment: Growth inhibition of human BC cells; assay type: functional
THP-1 = experiment: Growth inhibition of human THP-1 cells incubated for 48 hrs by cell-titer Glo reagent based assay; assay type: functional
MV4-11 [5] = experiment: Antitumor activity against human MV4-11 cells xenografted in SCID mouse assessed as inhibition of tumor growth at 100 mg/kg administered for 14 days consecutively relative to control; assay type: functional; details: MV4-11, 336 h, time 14 day, read-out: TGI
[6] = target: T1, Induced myeloid leukemia cell differentiation protein Mcl-1; experiment: Binding affinity to Mcl-1 (unknown origin) assessed as inhibition constant
NCI-H929 [7] = experiment: Antiproliferative activity against human NCI-H929 cells assessed as reduction in cell viability; assay type: functional, cell-based
MV4-11 [8] = experiment: animal or person; details: Mus musculus, MV4-11, po, 120 h, read-out: TGI
Description: Antitumor activity against human MV4-11 cells xenografted in C57BL/6 mouse assessed as tumor growth inhibition at 12.5 mg/kg, po administered once daily for 5 days relative to control

OCI-AML-5 = experiment: Antiproliferative activity against human OCI-AML5 cells assessed as reduction in cell viability incubated for 48 hrs by MTT assay; details: OCI-AML-5, 48 h
[9] = target: T2, Apoptosis regulator Bcl-2 (Homo sapiens, UniProt P10415); experiment: Binding affinity to human Bcl-2 assessed as inhibition constant SPR assay
T2 sequence (P10415 whole entry): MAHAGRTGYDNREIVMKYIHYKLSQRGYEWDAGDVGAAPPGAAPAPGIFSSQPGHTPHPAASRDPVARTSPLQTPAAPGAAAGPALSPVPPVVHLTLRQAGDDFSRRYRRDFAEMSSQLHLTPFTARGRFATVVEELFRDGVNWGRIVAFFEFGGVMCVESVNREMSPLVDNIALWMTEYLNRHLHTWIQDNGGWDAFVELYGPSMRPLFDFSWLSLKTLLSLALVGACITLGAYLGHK

AMO1 [10] = experiment: Antiproliferative activity against human AMO1 cells assessed as reduction in cell viability; assay type: functional, cell-based
MV4-11 [11] = experiment: Antiproliferative activity against human MV4-11 cells assessed as reduction in cell viability; assay type: functional, cell-based
Bcl-2-like protein 2 = Bcl-2-like protein 2 (Homo sapiens, UniProt Q92843); experiment: Binding affinity to Bcl-W (unknown origin) assessed as inhibition constant
Bcl-2-like protein 2, sequence (Q92843 whole entry): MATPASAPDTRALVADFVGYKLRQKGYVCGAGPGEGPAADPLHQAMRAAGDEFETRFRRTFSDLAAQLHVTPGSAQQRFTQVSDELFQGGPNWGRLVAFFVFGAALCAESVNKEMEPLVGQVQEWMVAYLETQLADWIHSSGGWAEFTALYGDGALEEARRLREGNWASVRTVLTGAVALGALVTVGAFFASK

[12] = target: T2, Apoptosis regulator Bcl-2; experiment: Binding affinity to Bcl-2 (unknown origin) assessed as inhibition constant
AMO1 [13] = experiment: Antitumor activity against human AMO1 cells xenografted in mouse model assessed as tumor growth inhibition at 12.5 mg/kg administered for 20 days relative to control; assay type: functional; details: AMO1, 480 h, time 20 day, read-out: TGI
Bcl-2-related protein A1 = Bcl-2-related protein A1 (Homo sapiens, UniProt Q16548); experiment: Binding affinity to Bfl-1 (unknown origin) assessed as inhibition constant
Bcl-2-related protein A1, sequence (Q16548 whole entry): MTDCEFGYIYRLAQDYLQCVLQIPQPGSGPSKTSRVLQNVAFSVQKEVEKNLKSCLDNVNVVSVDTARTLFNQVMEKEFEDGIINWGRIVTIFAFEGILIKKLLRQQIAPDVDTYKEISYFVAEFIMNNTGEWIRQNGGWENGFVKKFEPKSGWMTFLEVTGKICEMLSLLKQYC

Bcl-2-like protein 1 [14] = target: T3, Bcl-2-like protein 1 (Homo sapiens, UniProt Q07817); experiment: Binding affinity to Bcl-xL (unknown origin) assessed as inhibition constant
T3 sequence (Q07817 whole entry): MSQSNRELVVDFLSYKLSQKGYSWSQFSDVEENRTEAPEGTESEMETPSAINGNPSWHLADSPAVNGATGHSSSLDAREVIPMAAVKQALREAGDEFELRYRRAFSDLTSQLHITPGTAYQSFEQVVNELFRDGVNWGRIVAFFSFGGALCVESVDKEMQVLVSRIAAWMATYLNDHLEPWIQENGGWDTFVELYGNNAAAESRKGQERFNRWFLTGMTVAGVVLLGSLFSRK

NCI-H929 [15] = experiment: Antitumor activity against human NCI-H929 cells xenografted in mouse model assessed as tumor growth inhibition at 25 mg/kg administered for 5 days relative to control; assay type: functional; details: NCI-H929, 120 h, time 5 day, read-out: TGI
SK-MEL-2 = experiment: Antiproliferative activity against human SK-MEL-2 cells assessed as reduction in cell viability incubated for 48 hrs by MTT assay; assay type: functional, cell-based; details: SK-MEL-2, 48 h
AMO1 [16] = experiment: Antitumor activity against human AMO1 cells xenografted in mouse model assessed as tumor growth inhibition at 6.25 mg/kg administered for 5 days relative to control; assay type: functional; details: AMO1, 120 h, time 5 day, read-out: TGI
SK-BR-3 = experiment: Antiproliferative activity against human SK-BR-3 cells assessed as reduction in cell viability incubated for 48 hrs by MTT assay; assay type: functional, cell-based; details: SK-BR-3, 48 h
NCI-H522 = experiment: Antiproliferative activity against human NCI-H522 cells assessed as reduction in cell viability incubated for 48 hrs by MTT assay; assay type: functional, cell-based; details: NCI-H522, 48 h
AMO1 [17] = experiment: Antitumor activity against human AMO1 cells xenografted in mouse model assessed as tumor growth inhibition at 25 mg/kg administered for 5 days relative to control; assay type: functional; details: AMO1, 120 h, time 5 day, read-out: TGI
[18] = target: T1, Induced myeloid leukemia cell differentiation protein Mcl-1; experiment: Inhibition of human recombinant Mcl-1 by Surface Plasmon Resonance assay
[19] = Oral bioavailability in CD-1 mouse at 10 mg/kg, […]; assay type: ADME, organism-based; details: in vivo
[20] = target: T1, Induced myeloid leukemia cell differentiation protein Mcl-1; experiment: Binding affinity to Mcl-1 (unknown origin) assessed as inhibition constant by Fluorescence polarization assay
[21] = target: T1, Induced myeloid leukemia cell differentiation protein Mcl-1; experiment: Binding affinity to human Mcl-1 assessed as dissociation constant by Surface Plasmon Resonance assay
MOLM-13 [22] = experiment: Growth inhibition of human MOLM-13 cells by cell-titer Glo reagent based assay; assay type: functional
[23] = target: T2, Apoptosis regulator Bcl-2; experiment: Binding affinity to Bcl-2 (unknown origin) expressed in Escherichia coli BL21 (DE3) assessed as inhibition constant by fluorescence polarization assay
SUD4 = experiment: Induction of apoptosis in human SU-DHL-4 cells; assay type: functional, cell-based
[24] = target: T1, Induced myeloid leukemia cell differentiation protein Mcl-1; experiment: Binding affinity to human Mcl-1 assessed as inhibition constant
MV4-11 [25] = experiment: Induction of apoptosis in human MV4-11 cells; assay type: functional, cell-based
MOLP-8 [26] = experiment: Induction of apoptosis in human MOLP8 cells; assay type: functional, cell-based
MOLM-13 [27] = experiment: Induction of apoptosis in human MOLM-13 cells; assay type: functional, cell-based
EOL1 = experiment: Induction of apoptosis in human EOL1 cells; assay type: functional, cell-based
Bcl-2-like protein 1 [28] = target: T3, Bcl-2-like protein 1; experiment: Binding affinity to Bcl-XL (unknown origin) assessed as inhibition constant by fluorescence polarization assay
[29] = target: T1, Induced myeloid leukemia cell differentiation protein Mcl-1; experiment: Inhibition of Mcl-1 (unknown origin)
MOLP-8 [30] = experiment: Antiproliferative activity against human MOLP8 cells assessed as reduction in cell viability incubated for 24 hrs by Celltiter-Glo reagent based assay; details: MOLP-8, 24 h
NCI-H23 = experiment: Antiproliferative activity against human NCI-H23 cells assessed as reduction in cell viability incubated for 24 hrs by Celltiter-Glo reagent based assay; assay type: functional; details: NCI-H23, 24 h
MV4-11 [31] = experiment: Antiproliferative activity against human MV4-11 cells assessed as reduction in cell viability incubated for 24 hrs by Celltiter-Glo reagent based assay; details: MV4-11, 24 h

T1 sequence (Q07820 whole entry, the tested form may be a part): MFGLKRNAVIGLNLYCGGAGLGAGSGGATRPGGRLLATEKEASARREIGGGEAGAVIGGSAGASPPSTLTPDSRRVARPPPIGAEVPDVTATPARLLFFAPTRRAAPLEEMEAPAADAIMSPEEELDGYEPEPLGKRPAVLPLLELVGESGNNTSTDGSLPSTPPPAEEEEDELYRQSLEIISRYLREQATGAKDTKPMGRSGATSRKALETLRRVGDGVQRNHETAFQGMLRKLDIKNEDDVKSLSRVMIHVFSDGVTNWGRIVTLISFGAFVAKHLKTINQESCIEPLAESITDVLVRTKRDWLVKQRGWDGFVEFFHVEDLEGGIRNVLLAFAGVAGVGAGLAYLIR

Cc1c2c(nn1C)CSCc1cc(n(C)n1)CCc1cc(c3ccccc3c1)OCCCc1c(C(=O)O)[nH]c3c-2cccc13
IC50 [1]: 19 nM

Cc1cc(OCCC(=O)O)cc(C)c1Cl
Ki [2]: 68000 nM

Cc1cc(OCCCc2c3n(c4c(-c5c(C)nn(C)c5C)c(Cl)ccc24)[C@H](C)CN(c2cn(C)c4ccc(C(=O)O)cc24)C3=O)cc(C)c1Cl
GI50 (MOLM-13 [3]): 210 nM | GI50 (MV4-11 [4]): 180 nM | GI50 (HL-60): 3710 nM | GI50 (HCC1187): 2100 nM | GI50 (BC): 1300 nM | GI50 (THP-1): 490 nM | inhibition in vivo at 100 mg/kg (MV4-11 [5]): 60%

CCC1CC/C=C/C(O)C2CCC2CN2CC3(CCc4cc(Cl)ccc43)COc3ccc(cc32)C(=O)NS1(=O)=O (stereo unspecified)
Ki [6]: 0.05 nM

Cc1c(-c2c(-c3ccc(F)o3)sc3ncnc(O[C@H](Cc4ccccc4OCc4ccnn4CC(F)(F)F)C(=O)O)c23)ccc(OCCN2CCN(C)CC2)c1Cl
EC50 (NCI-H929 [7]): < 10 nM | inhibition in vivo at 12.5 mg/kg (MV4-11 [8]): 86% | IC50 (OCI-AML-5): 4 nM | Ki [9]: > 10000 nM

CO[C@]1(CN2CCN3CCCC[C@@H]3C2)/C=C/C[C@H](C)[C@@H](C)S(=O)(=O)NC(=O)c2ccc3c(c2)N(C[C@@H]2CC[C@H]21)C[C@@]1(CCCc2cc(Cl)ccc21)CO3 [MURIZATOCLAX]
EC50 (NCI-H929 [7]): 13 nM | EC50 (AMO1 [10]): 13.5 nM | EC50 (MV4-11 [11]): 43.6 nM

Cc1c(Cl)c2c(Cl)c(C)c1-c1c(-c3ccc(F)cc3)sc3ncnc(c13)O[C@@H](C(=O)O)Cc1cc(ccc1OCc1ccnc(-c3ccc(OC[C@@H]4COCCO4)cc3)n1)OC[C@@H](CN1CCN(C)CC1)O2
Ki (Bcl-2-like protein 2): > 468 nM | EC50 (NCI-H929 [7]): 0.47 nM | Ki [12]: 599 nM | EC50 (AMO1 [10]): 0.16 nM | EC50 (MV4-11 [11]): 3.91 nM | inhibition in vivo at 12.5 mg/kg (AMO1 [13]): 46% | Ki (Bcl-2-related protein A1): > 468 nM | Ki [6]: < 0.01 nM | Ki (Bcl-2-like protein 1 [14]): > 660 nM

COc1ccccc1-c1nccc(COc2ccccc2C[C@H](Oc2ncnc3sc(-c4ccc(F)cc4)c(-c4ccc(OCCN5CCN(C)CC5)c(Cl)c4C)c23)C(=O)O)n1
EC50 (NCI-H929 [7]): 4.75 nM | inhibition in vivo at 25 mg/kg (NCI-H929 [15]): 103% | EC50 (AMO1 [10]): 2.06 nM | EC50 (MV4-11 [11]): 10.9 nM | IC50 (SK-MEL-2): < 100 nM | inhibition in vivo at 6.25 mg/kg (AMO1 [16]): 190% | IC50 (SK-BR-3): < 100 nM | IC50 (NCI-H522): < 100 nM | inhibition in vivo at 25 mg/kg (AMO1 [17]): 114%

O=C(O)CSc1cc(NS(=O)(=O)c2ccc(Br)cc2)c2ccccc2c1O
IC50 [18]: 310 nM

Cc1cc(SCc2nn(C)c(C)c2-c2cccc3c(CCCOc4cccc5ccccc45)c(C(=O)O)[nH]c23)nn1C
IC50 [1]: 42 nM

CC1(C)CCC(c2ccc(Cl)cc2)=C(CN2CCN(c3ccc(C(=O)NS(=O)(=O)c4ccc(N[C@H](CCN5CCOCC5)CSc5ccccc5)c(S(=O)(=O)C(F)(F)F)c4)cc3)CC2)C1 [NAVITOCLAX]
bioavailability [19]: 57%

CCc1sc2ncnc(N[C@@H](C)C(=O)O)c2c1CC
Ki [20]: 1.2 nM | Kd [21]: 0.19 nM

COCCOCCn1nc(C)c2c1CSCc1cc(n(C)n1)CCc1cc(c3ccccc3c1)OCCCn1c(C(=O)O)c(C)c3c-2c(Cl)ccc31
GI50 (MOLM-13 [22]): 10 nM | Ki [23]: 3750 nM | AC50 (SUD4): 21 nM | Ki [24]: 0.006 nM | AC50 (MV4-11 [25]): 14 nM | AC50 (MOLP-8 [26]): 8.7 nM | AC50 (MOLM-13 [27]): 10 nM | AC50 (EOL1): 2.1 nM | Ki (Bcl-2-like protein 1 [28]): 5000 nM

O=C(NS(=O)(=O)Cc1ccccc1)c1ccc2c(c1)N(CC1CCC1)CC(c1ccc(Cl)cc1Cl)O2 (stereo unspecified)
IC50 [29]: 300 nM

Cc1c2c(nn1C)CSCc1cc(n(C)n1)CSc1cc(c3ccccc3c1)OCCCc1c(C(=O)O)n(C)c3c-2c(Cl)ccc13 [AZD-5991]
EC50 (MOLP-8 [30]): 33 nM | EC50 (NCI-H929 [7]): 31.7 nM | EC50 (AMO1 [10]): 22.9 nM | EC50 (MV4-11 [11]): 34.9 nM | EC50 (NCI-H23): 190 nM | EC50 (MV4-11 [31]): 24 nM
